From PubChem BioAssay AID248 (DTP/NCI, 2004)
Values joined by “and” are separate entries in the source; they are usually repeats but may differ in a detail not shown here. Equal entries are not always repeated. Inconclusive results and toxic doses are left out.

Test system: L1210 leukemia ip in BDF1 mice, survival T/C
Test: NCI In Vivo Anticancer Drug Screen. Data for tumor model L1210 Leukemia (intraperitoneal) in B6D2F1 (BDF1) mice
Settings: endpoint: mean survival time, higher = longer survival
Procedure, shortened: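 Transplantable tumor model; survival measured in treated vs vehicle control mice. Value = treated/control.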

## O=NN(CCCl)C(=O)NC1CCCCC1
dose: 0.06 mg/kg/injection, schedule: Q03HX024 (ip), vehicle: saline
  T/C: 101 % of control
dose: 0.06 mg/kg/injection, schedule: Q03HX024 (oral), vehicle: saline
  T/C: 98 % of control
dose: 0.06 mg/kg/injection, schedule: Q03HX040 (oral), vehicle: saline
  T/C: 115 % of control
dose: 0.13 mg/kg/injection, schedule: Q03HX024 (oral), vehicle: saline
  T/C: 108 % of control
dose: 0.13 mg/kg/injection, schedule: Q03HX040 (oral), vehicle: saline
  T/C: 153 % of control
dose: 0.16 mg/kg/injection, schedule: Q#B X003 (ip), vehicle: carboxymethylcellulose (CMC)
  T/C: 103 % of control
dose: 0.33 mg/kg/injection, schedule: Q#B X003 (ip), vehicle: carboxymethylcellulose (CMC)
  T/C: 95 % of control
dose: 0.39 mg/kg/injection, schedule: Q03HX040 (ip), vehicle: carboxymethylcellulose (CMC)
  T/C: 100 % of control
dose: 0.5 mg/kg/injection, schedule: Q01DX005 (ip), vehicle: saline
  T/C: 101 % of control
dose: 0.66 mg/kg/injection, schedule: Q#B X003 (ip), vehicle: carboxymethylcellulose (CMC)
  T/C: 97 % of control
dose: 0.78 mg/kg/injection, schedule: Q03HX024 (ip), vehicle: carboxymethylcellulose (CMC)
  T/C: 106 % of control
dose: 1.0 mg/kg/injection, schedule: Q01DX001 (ip), vehicle: saline
  T/C: 104 % of control
dose: 1.0 mg/kg/injection, schedule: Q01DX001 (oral), vehicle: saline
  T/C: 100 % of control
dose: 1.0 mg/kg/injection, schedule: Q01DX005 (ip), vehicle: saline
  T/C: 104 % of control
dose: 1.0 mg/kg/injection, schedule: Q03HX040 (ip), vehicle: saline
  T/C: 100 % of control
dose: 1.0 mg/kg/injection, schedule: Q## X001 (ip), vehicle: carboxymethylcellulose (CMC)
  T/C: 106 % of control
dose: 1.33 mg/kg/injection, schedule: Q#B X003 (ip), vehicle: carboxymethylcellulose (CMC)
  T/C: 110 % of control
dose: 1.56 mg/kg/injection, schedule: Q01DX009 (ip), vehicle: carboxymethylcellulose (CMC)
  T/C: 105 % of control
dose: 1.56 mg/kg/injection, schedule: Q03HX024 (ip), vehicle: carboxymethylcellulose (CMC)
  T/C: 120 % of control
dose: 1.56 mg/kg/injection, schedule: Q03HX040 (ip), vehicle: carboxymethylcellulose (CMC)
  T/C: 119 % of control
dose: 2.0 mg/kg/injection, schedule: Q01DX Z (ip), vehicle: carboxymethylcellulose (CMC)
  T/C: 124 % of control
dose: 2.0 mg/kg/injection, schedule: Q04DX004 (ip), vehicle: Klucel (hydroxypropylcellulose) (HPC)
  T/C: 94 % of control
dose: 2.66 mg/kg/injection, schedule: Q#B X003 (ip), vehicle: carboxymethylcellulose (CMC)
  T/C: 121 % of control
dose: 2.8 mg/kg/injection, schedule: Q01DX015 (ip), vehicle: carboxymethylcellulose (CMC)
  T/C: 112 % of control
dose: 3.12 mg/kg/injection, schedule: Q01DX005 (ip), vehicle: carboxymethylcellulose (CMC)
  T/C: 113 % of control
dose: 3.12 mg/kg/injection, schedule: Q01DX Z (ip), vehicle: carboxymethylcellulose (CMC)
  T/C: 172 % of control
dose: 4.0 mg/kg/injection, schedule: Q01DX009 (oral), vehicle: saline
  T/C: 112 % of control
dose: 4.0 mg/kg/injection, schedule: Q03HX003 (oral), vehicle: saline
  T/C: 111 % of control
dose: 4.2 mg/kg/injection, schedule: Q## X015 (ip), vehicle: carboxymethylcellulose (CMC)
  T/C: 113 % of control
dose: 4.4 mg/kg/injection, schedule: Q04DX004 (ip), vehicle: Klucel (hydroxypropylcellulose) (HPC)
  T/C: 113 % of control
dose: 5.0 mg/kg/injection, schedule: Q## X032 (ip), vehicle: carboxymethylcellulose (CMC)
  T/C: 106 % of control and 110 % of control
dose: 6.0 mg/kg/injection, schedule: Q02DX005 (ip), vehicle: carboxymethylcellulose (CMC)
  T/C: 154 % of control
dose: 6.0 mg/kg/injection, schedule: Q02DX006 (ip), vehicle: carboxymethylcellulose (CMC)
  T/C: 158 % of control
dose: 6.0 mg/kg/injection, schedule: Q02DX007 (ip), vehicle: carboxymethylcellulose (CMC)
  T/C: 163 % of control
dose: 6.0 mg/kg/injection, schedule: Q## X008 (ip), vehicle: carboxymethylcellulose (CMC)
  T/C: 108 % of control
dose: 6.25 mg/kg/injection, schedule: Q01DX001 (ip), vehicle: Klucel (hydroxypropylcellulose) (HPC)
  T/C: 116 % of control
dose: 6.25 mg/kg/injection, schedule: Q01DX001 (ip), vehicle: carboxymethylcellulose (CMC)
  T/C: 109 % of control
dose: 6.25 mg/kg/injection, schedule: Q01DX001 (oral), vehicle: carboxymethylcellulose (CMC)
  T/C: 122 % of control
dose: 6.25 mg/kg/injection, schedule: Q01DX005 (ip), vehicle: carboxymethylcellulose (CMC)
  T/C: 157 % of control
dose: 6.25 mg/kg/injection, schedule: Q07DX Z (ip), vehicle: carboxymethylcellulose (CMC)
  T/C: 112 % of control
dose: 6.7 mg/kg/injection, schedule: Q04DX004 (ip), vehicle: Klucel (hydroxypropylcellulose) (HPC)
  T/C: 159 % of control
dose: 7.2 mg/kg/injection, schedule: Q## X032 (ip), vehicle: carboxymethylcellulose (CMC)
  T/C: 110 % of control
dose: 7.5 mg/kg/injection, schedule: Q01DX001 (iv), vehicle: Klucel (hydroxypropylcellulose) (HPC)
  T/C: 114 % of control
dose: 8.0 mg/kg/injection, schedule: Q03HX003 (oral), vehicle: saline
  T/C: 120 % of control
dose: 8.0 mg/kg/injection, schedule: Q## X032 (ip), vehicle: carboxymethylcellulose (CMC)
  T/C: 113 % of control
